Where “and” joins values, the source holds several entries; their conditions need not be identical. Equal values may be shown once. Inconclusive results and toxic doses are left out. No stated cut-off is given here; in the data, active means T/C of 150% or more; inactive means T/C below 125%. Square brackets hold non-standard residues; d marks the D form. Peptide text beside a SMILES is read from it. ξ: configuration not given here. ξV = CC(C)C(N)C(=O)O
Tested on: L1210 leukemia ip in BDF1 mice, survival T/C
Test: NCI In Vivo Anticancer Drug Screen. Data for tumor model L1210 Leukemia (intraperitoneal) in B6D2F1 (BDF1) mice
Conditions: endpoint: mean survival time, higher = longer survival
Summary of the method: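 Mice bearing the transplanted tumor received compound or vehicle. Survival of the treated group was divided by that of the vehicle-treated control group to give the ratio.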

[1] = dose: 100.0 mg/kg/injection, schedule: Q01DX001 (ip), vehicle: other
[2] = dose: 200.0 mg/kg/injection, schedule: Q01DX001 (ip), vehicle: other
[3] = dose: 400.0 mg/kg/injection, schedule: Q01DX001 (ip), vehicle: other
[4] = dose: 100.0 mg/kg/injection, schedule: Q01DX009 (ip), vehicle: saline
[5] = dose: 100.0 mg/kg/injection, schedule: Q04DX003 (ip), vehicle: saline
[6] = dose: 200.0 mg/kg/injection, schedule: Q01DX009 (ip), vehicle: saline
[7] = dose: 200.0 mg/kg/injection, schedule: Q04DX003 (ip), vehicle: saline
[8] = dose: 400.0 mg/kg/injection, schedule: Q04DX003 (ip), vehicle: saline
[9] = dose: 100.0 mg/kg/injection, schedule: Q01DX009 (ip), vehicle: Klucel (hydroxypropylcellulose) (HPC)
[10] = dose: 200.0 mg/kg/injection, schedule: Q01DX009 (ip), vehicle: Klucel (hydroxypropylcellulose) (HPC)
[11] = dose: 400.0 mg/kg/injection, schedule: Q01DX009 (ip), vehicle: Klucel (hydroxypropylcellulose) (HPC)
[12] = dose: 100.0 mg/kg/injection, schedule: Q01DX001 (ip), vehicle: saline with Tween-80
[13] = dose: 200.0 mg/kg/injection, schedule: Q01DX001 (ip), vehicle: saline with Tween-80
[14] = dose: 100.0 mg/kg/injection, schedule: Q01DX001 (ip), vehicle: saline
[15] = dose: 200.0 mg/kg/injection, schedule: Q01DX001 (ip), vehicle: saline
[16] = dose: 400.0 mg/kg/injection, schedule: Q01DX001 (ip), vehicle: saline
[17] = dose: 100.0 mg/kg/injection, schedule: Q04DX003 (ip), vehicle: saline with Tween-80
[18] = dose: 200.0 mg/kg/injection, schedule: Q04DX003 (ip), vehicle: saline with Tween-80
[19] = dose: 400.0 mg/kg/injection, schedule: Q04DX003 (ip), vehicle: saline with Tween-80
[20] = dose: 200.0 mg/kg/injection, schedule: Q01DX009 (ip), vehicle: other
[21] = dose: 100.0 mg/kg/injection, schedule: Q04DX002 (ip), vehicle: Klucel (hydroxypropylcellulose) (HPC)

Measured: T/C

COc1cc2c(cc1OC)C(=O)CC2
inactive: dose: 50.0 mg/kg/injection, schedule: Q01DX001 (ip), vehicle: other 91 % of control | [1] 98 % of control | [2] 98 % of control | [3] 96 % of control

CC(C)C(NC(=O)CNC(=O)CN)C(=O)O (stereo not drawn) (H-Gly-Gly-[ξV]-OH)
inactive: [4] 104 % of control | [5] 106 % of control | [6] 102 % of control | [7] 103 % of control | dose: 400.0 mg/kg/injection, schedule: Q01DX009 (ip), vehicle: saline 102 % of control | [8] 106 % of control

C[C@H]1CP(c2ccccc2)(c2ccccc2)(c2ccccc2)O[C@@]1(C(=O)c1ccccc1)c1ccccc1
inactive: dose: 12.5 mg/kg/injection, schedule: Q04DX003 (ip), vehicle: saline with Tween-80 100 % of control | dose: 25.0 mg/kg/injection, schedule: Q04DX003 (ip), vehicle: saline with Tween-80 100 % of control | dose: 50.0 mg/kg/injection, schedule: Q04DX003 (ip), vehicle: saline with Tween-80 94 % of control

O=C(NC(=S)Nc1cccc(Cl)c1)c1cccc([N+](=O)[O-])c1
inactive: [9] 103 % of control | dose: 100.0 mg/kg/injection, schedule: Q04DX003 (ip), vehicle: Klucel (hydroxypropylcellulose) (HPC) 105 % of control | [10] 100 % of control | dose: 200.0 mg/kg/injection, schedule: Q04DX003 (ip), vehicle: Klucel (hydroxypropylcellulose) (HPC) 97 % of control | [11] 100 % of control | dose: 400.0 mg/kg/injection, schedule: Q04DX003 (ip), vehicle: Klucel (hydroxypropylcellulose) (HPC) 95 % of control

NNC(=O)c1ccccc1CO
inactive: [12] 100 % of control | [13] 103 % of control

CCOC(=O)CC(C(=O)OCC)C(OCC)OCC (configuration not stated)
inactive: [5] 104 % of control | [7] 106 % of control | [8] 111 % of control

O=C(Oc1ccccc1)C(O)CO (configuration not stated)
inactive: dose: 100.0 mg/kg/injection, schedule: Q01DX009 (ip), vehicle: saline with Tween-80 92 % of control | dose: 200.0 mg/kg/injection, schedule: Q01DX009 (ip), vehicle: saline with Tween-80 96 % of control | dose: 400.0 mg/kg/injection, schedule: Q01DX009 (ip), vehicle: saline with Tween-80 93 % of control

O=C(OC/C=C/CC(Cl)(Cl)Cl)C(Cl)(Cl)Cl
inactive: [14] 104 % of control | dose: 100.0 mg/kg/injection, schedule: Q01DX009 (ip), vehicle: acetone 93 % of control | dose: 100.0 mg/kg/injection, schedule: Q04DX003 (ip), vehicle: acetone 109 % of control | [15] 112 % of control | dose: 200.0 mg/kg/injection, schedule: Q01DX009 (ip), vehicle: acetone 90 % of control | dose: 200.0 mg/kg/injection, schedule: Q04DX003 (ip), vehicle: acetone 103 % of control | [16] 102 % of control | dose: 400.0 mg/kg/injection, schedule: Q04DX003 (ip), vehicle: acetone 93 % of control

CCOC(=O)/C(C#N)=C/c1cccn1Cc1ccc2ccccc2c1
inactive: dose: 100.0 mg/kg/injection, schedule: Q04DX002 (ip), vehicle: saline with Tween-80 101 % of control | dose: 200.0 mg/kg/injection, schedule: Q04DX002 (ip), vehicle: saline with Tween-80 90 % of control | dose: 400.0 mg/kg/injection, schedule: Q04DX002 (ip), vehicle: saline with Tween-80 90 % of control

CCCCNC(=S)N(CCCC)CCCC
inactive: [5] 96 % of control | [7] 103 % of control | [8] 96 % of control

Cc1cccc(C)c1NC(=O)Oc1ccc(Cl)cc1Cc1ccccc1
inactive: [9] 88 % of control | [10] 88 % of control | [11] 102 % of control

CCC(C(C)=O)C(C)=O.CCC(C(C)=O)C(C)=O.[Cu]
inactive: dose: 6.0 mg/kg/injection, schedule: Q01DX001 (ip), vehicle: saline 95 % of control | dose: 12.0 mg/kg/injection, schedule: Q01DX001 (ip), vehicle: saline 101 % of control | dose: 25.0 mg/kg/injection, schedule: Q01DX001 (ip), vehicle: saline 112 % of control

Brc1ccccc1C[n+]1cccc2ccccc21
inactive: dose: 75.0 mg/kg/injection, schedule: Q01DX001 (ip), vehicle: other 101 % of control

OC(c1cc(C(F)(F)F)nc2c(F)cccc12)C1CCCCN1 (configuration not stated)
inactive: [17] 102 % of control | [18] 105 % of control | [19] 96 % of control

CC1C(=O)C2C1CS2(=O)=O (configuration not stated)
inactive: dose: 100.0 mg/kg/injection, schedule: Q04DX002 (ip), vehicle: DMSO 97 % of control | dose: 200.0 mg/kg/injection, schedule: Q04DX002 (ip), vehicle: DMSO 97 % of control | dose: 400.0 mg/kg/injection, schedule: Q04DX002 (ip), vehicle: DMSO 91 % of control

N#CC(C#N)=NNc1ccc(S(=O)(=O)O)cc1
inactive: [17] 94 % of control | [18] 107 % of control | [19] 102 % of control

O=[N+]([O-])c1ccc(OCc2cccc(Cl)c2S(=O)(=O)F)c(Cl)c1
inactive: dose: 100.0 mg/kg/injection, schedule: Q04DX003 (ip), vehicle: gum acacia 98 % of control | dose: 200.0 mg/kg/injection, schedule: Q04DX003 (ip), vehicle: gum acacia 104 % of control | dose: 400.0 mg/kg/injection, schedule: Q04DX003 (ip), vehicle: gum acacia 97 % of control

O=C1OC(c2ccc([N+](=O)[O-])cc2)=N/C1=C\c1cccc2ccccc12
inactive: dose: 100.0 mg/kg/injection, schedule: Q01DX009 (ip), vehicle: other 96 % of control | [20] 88 % of control | dose: 400.0 mg/kg/injection, schedule: Q01DX009 (ip), vehicle: other 93 % of control

CCC(=O)OC(OC(=O)CC)c1cccc2ccccc12
inactive: dose: 222.0 mg/kg/injection, schedule: Q01DX Z (ip), vehicle: saline 90 % of control | dose: 333.0 mg/kg/injection, schedule: Q01DX Z (ip), vehicle: saline 86 % of control | dose: 500.0 mg/kg/injection, schedule: Q01DX Z (ip), vehicle: saline 95 % of control

CNC1C(O)C(OC2C(N)CC(N)C(OC3OC(CN)C(O)C(O)C3O)C2O)OCC1(C)O (configuration not stated)
inactive: dose: 100.0 mg/kg/injection, schedule: Q04DX002 (ip), vehicle: saline 116 % of control | dose: 200.0 mg/kg/injection, schedule: Q04DX002 (ip), vehicle: saline 100 % of control | dose: 400.0 mg/kg/injection, schedule: Q04DX002 (ip), vehicle: saline 95 % of control

CCCC(C)C(=O)OCP(=O)(COC(=O)C(C)CCC)COC(=O)C(C)CCC (configuration not stated)
inactive: [12] 97 % of control | [13] 89 % of control

O=C(CSc1ccccc1)NCc1cnccn1
inactive: [4] 103 % of control | [5] 92 % of control | [6] 102 % of control | [7] 105 % of control | [8] 105 % of control

CSc1ncnc2c1ncn2NC(C)=O
inactive: dose: 88.0 mg/kg/injection, schedule: Q01DX009 (ip), vehicle: other 107 % of control | [1] 98 % of control | dose: 134.0 mg/kg/injection, schedule: Q01DX009 (ip), vehicle: other 104 % of control | [2] 104 % of control | [20] 113 % of control | dose: 300.0 mg/kg/injection, schedule: Q01DX009 (ip), vehicle: other 120 % of control | [3] 112 % of control

OB(Cc1ccccc1)c1ccccc1
inactive: [14] 97 % of control | [15] 89 % of control | [16] 97 % of control

O=C(NSNc1ccccc1)c1ccccc1
inactive: [21] 110 % of control | dose: 200.0 mg/kg/injection, schedule: Q04DX002 (ip), vehicle: Klucel (hydroxypropylcellulose) (HPC) 103 % of control | dose: 400.0 mg/kg/injection, schedule: Q04DX002 (ip), vehicle: Klucel (hydroxypropylcellulose) (HPC) 100 % of control

NC(=S)N/N=C/c1ccc(Cl)s1
inactive: dose: 25.0 mg/kg/injection, schedule: Q04DX002 (ip), vehicle: Klucel (hydroxypropylcellulose) (HPC) 95 % of control | dose: 50.0 mg/kg/injection, schedule: Q04DX002 (ip), vehicle: Klucel (hydroxypropylcellulose) (HPC) 95 % of control | [21] 98 % of control and 100 % of control

— PubChem BioAssay AID248 (DTP/NCI, 2004)
